Data published in BindingDB's records for doi:10.1016/S0960-894X(96)00483-0 (1996).

Target: Kynureninase (Pseudomonas fluorescens) (UniProt P83788)
Assay: Compound was evaluated for its binding affinity against kynureninase isolated from Pseudomonas fluorescence

Kynureninase (Pseudomonas fluorescens), sequence (P83788 whole entry, looked up): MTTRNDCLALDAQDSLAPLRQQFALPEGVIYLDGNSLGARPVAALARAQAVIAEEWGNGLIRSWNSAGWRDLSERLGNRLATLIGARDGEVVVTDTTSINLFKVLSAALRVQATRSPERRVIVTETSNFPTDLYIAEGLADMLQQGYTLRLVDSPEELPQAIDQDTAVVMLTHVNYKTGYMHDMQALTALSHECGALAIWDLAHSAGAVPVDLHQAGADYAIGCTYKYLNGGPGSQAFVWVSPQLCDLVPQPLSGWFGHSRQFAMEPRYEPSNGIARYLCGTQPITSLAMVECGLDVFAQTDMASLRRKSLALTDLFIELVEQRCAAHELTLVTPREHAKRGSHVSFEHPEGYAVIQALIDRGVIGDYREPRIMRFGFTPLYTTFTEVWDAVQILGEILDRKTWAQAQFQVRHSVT

Ki [µM] | SMILES
4.28 | Nc1ccccc1C(=O)C[C@H](N)C(=O)O [2-ammonio-4-(2-ammoniophenyl)-4-oxo-(2S)-butanoate]
23.4 | N[C@@H](CC(=O)c1ccccc1)C(=O)O [2-ammonio-4-oxo-4-phenyl-(2S)-butanoate]
8.8 | COC(=O)[C@H](CP(=O)(OC)c1ccccc1)NC(=O)OCc1ccccc1 (stereo partly drawn) [(R)-2-Benzyloxycarbonylamino-3-(methoxy-phenyl-phosphinoyl)-propionic acid methyl ester]
880 | COP(=O)(C[C@H](NC(=O)OCc1ccccc1)C(=O)O)c1ccccc1 (stereo partly drawn) [(R)-2-Benzyloxycarbonylamino-3-(methoxy-phenyl-phosphinoyl)-propionic acid]
